Assay results reported in ChEMBL document CHEMBL4334526, “Synthesis of Peptoid-Based Class I-Selective Histone Deacetylase Inhibitors with Chemosensitizing Properties” (J Med Chem, 2019).
Activity calls are given as the source filed them. No cut-off for these calls is given here.

What was measured:
[1] = target: T1, Class 1 histone deacetylase (Homo sapiens, UniProt Q13547+O15379+Q92769+Q9BY41)
Description: Inhibition of class 1 HDAC in human Cal27CisR cells assessed as potentiation of cisplatin-induced cytotoxicity by measuring combination index at 0.5 uM in presence of 3.2 uM cisplatin by MTT assay based Chou-Talalay analysis

[2] = target: T1, Class 1 histone deacetylase; experiment: Inhibition of class 1 HDAC in human CAL27 cells assessed as potentiation of cisplatin-induced cytotoxicity by measuring combination index at 1 uM in presence of 10 uM cisplatin by MTT assay based Chou-Talalay analysis; assay type: cell-based; settings: CAL-27
[3] = target: T1, Class 1 histone deacetylase; experiment: Inhibition of class 1 HDAC in human CAL27 cells assessed as potentiation of cisplatin-induced cytotoxicity by measuring combination index at 1 uM in presence of […] cisplatin by MTT assay based Chou-Talalay analysis; assay type: cell-based; settings: CAL-27
[4] = target: T1, Class 1 histone deacetylase; experiment: Inhibition of class 1 HDAC in human Cal27CisR cells assessed as potentiation of cisplatin-induced cytotoxicity by measuring combination index at […] in presence of 100 uM cisplatin by MTT assay based Chou-Talalay analysis; assay type: cell-based
[5] = target: T1, Class 1 histone deacetylase; experiment: Inhibition of class 1 HDAC in human CAL27 cells assessed as potentiation of cisplatin-induced cytotoxicity by measuring combination index at […] in presence of 10 uM cisplatin by MTT assay based Chou-Talalay analysis; assay type: cell-based; settings: CAL-27
[6] = target: T1, Class 1 histone deacetylase; experiment: Inhibition of class 1 HDAC in human CAL27 cells assessed as potentiation of cisplatin-induced cytotoxicity by measuring combination index at […] in presence of 1 uM cisplatin by MTT assay based Chou-Talalay analysis; assay type: cell-based; settings: CAL-27
[7] = target: T1, Class 1 histone deacetylase; experiment: Inhibition of class 1 HDAC in human Cal27CisR cells assessed as potentiation of cisplatin-induced cytotoxicity by measuring combination index at […] in presence of 32 uM cisplatin by MTT assay based Chou-Talalay analysis; assay type: cell-based
[8] = target: T1, Class 1 histone deacetylase; experiment: Inhibition of class 1 HDAC in human Cal27CisR cells assessed as potentiation of cisplatin-induced cytotoxicity by measuring combination index at 1 uM in presence of 1 uM cisplatin by MTT assay based Chou-Talalay analysis; assay type: cell-based
[9] = target: T1, Class 1 histone deacetylase; experiment: Inhibition of class 1 HDAC in human Cal27CisR cells assessed as potentiation of cisplatin-induced cytotoxicity by measuring combination index at 1 uM in presence of […] cisplatin by MTT assay based Chou-Talalay analysis; assay type: cell-based
[10] = target: Histone deacetylase 3/Nuclear receptor corepressor 2 (HDAC3/NCoR2) (Homo sapiens, UniProt O15379); experiment: biochemical; assay type: cell-based, Sf9
Description: Inhibition of human recombinant full length C-terminal His-tagged HDAC3 (1 to 428 residues)/N-terminal GST-tagged NCOR2 (395 to 489 residues) expressed in baculovirus infected Sf9 insect cells using Boc-Lys(epsilon-acetyl)-AMC as substrate incubated for 90 mins by fluorescence assay

[11] = target: Histone deacetylase 3/Nuclear receptor corepressor 2 (HDAC3/NCoR2) (Homo sapiens) (UniProt O15379+Q9Y618); experiment: Inhibition of human recombinant full length C-terminal His-tagged HDAC3 (1 to 428 residues)/N-terminal GST-tagged NCOR2 (395 to 489 residues) expressed in baculovirus infected Sf9 insect cells at 10 uM using Boc-Lys(epsilon-acetyl)-AMC as substrate incubated for 90 mins by fluorescence assay relative to control
[12] = target: T1, Class 1 histone deacetylase; experiment: (§1) Inhibition of class 1 HDAC in human CAL27 cells assessed as potentiation of cisplatin-induced cytotoxicity by measuring combination index at […] in presence of […] cisplatin by MTT assay based Chou-Talalay analysis; assay type: cell-based; settings: CAL-27
[13] = target: T1, Class 1 histone deacetylase; experiment: Inhibition of class 1 HDAC in human Cal27CisR cells assessed as potentiation of cisplatin-induced cytotoxicity by measuring combination index at […] in presence of 10 uM cisplatin by MTT assay based Chou-Talalay analysis; assay type: cell-based
[14] = target: T1, Class 1 histone deacetylase; experiment: Inhibition of class 1 HDAC in human Cal27CisR cells assessed as potentiation of cisplatin-induced cytotoxicity by measuring combination index at 1 uM in presence of 10 uM cisplatin by MTT assay based Chou-Talalay analysis; assay type: cell-based
[15] = target: T1, Class 1 histone deacetylase; remark: listed apart in the source
[16] = target: T1, Class 1 histone deacetylase; experiment: Inhibition of class 1 HDAC in human Cal27CisR cells assessed as potentiation of cisplatin-induced cytotoxicity by measuring combination index at […] in presence of […] cisplatin by MTT assay based Chou-Talalay analysis; assay type: cell-based
[17] = target: T1, Class 1 histone deacetylase; experiment: Inhibition of class 1 HDAC in human Cal27CisR cells assessed as potentiation of cisplatin-induced cytotoxicity by measuring combination index at 1 uM in presence of 100 uM cisplatin by MTT assay based Chou-Talalay analysis; assay type: cell-based
[18] = target: T1, Class 1 histone deacetylase; settings: CAL-27
Description: Inhibition of class 1 HDAC in human CAL27 cells assessed as potentiation of cisplatin-induced cytotoxicity by measuring combination index at 0.5 uM in presence of 0.1 uM cisplatin by MTT assay based Chou-Talalay analysis

[19] = target: T1, Class 1 histone deacetylase; remark: listed apart in the source
Description: Inhibition of class 1 HDAC in human Cal27CisR cells assessed as potentiation of cisplatin-induced cytotoxicity by measuring combination index at 0.5 uM in presence of 1 uM cisplatin by MTT assay based Chou-Talalay analysis

[20] = target: T1, Class 1 histone deacetylase; experiment: as §1; assay type: cell-based; settings: CAL-27; remark: listed apart in the source
[21] = target: T1, Class 1 histone deacetylase; settings: CAL-27; remark: listed apart in the source
Description: Inhibition of class 1 HDAC in human CAL27 cells assessed as potentiation of cisplatin-induced cytotoxicity by measuring combination index at 0.5 uM in presence of 3.2 uM cisplatin by MTT assay based Chou-Talalay analysis

[22] = target: T1, Class 1 histone deacetylase; settings: CAL-27; remark: listed apart in the source
Description: Inhibition of class 1 HDAC in human CAL27 cells assessed as potentiation of cisplatin-induced cytotoxicity by measuring combination index at 0.5 uM in presence of 10 uM cisplatin by MTT assay based Chou-Talalay analysis

[23] = target: T1, Class 1 histone deacetylase; experiment: Inhibition of class 1 HDAC in human CAL27 cells assessed as potentiation of cisplatin-induced cytotoxicity by measuring combination index at 1 uM in presence of 1 uM cisplatin by MTT assay based Chou-Talalay analysis; assay type: cell-based; settings: CAL-27
[24] = target: T1, Class 1 histone deacetylase; settings: CAL-27; remark: listed apart in the source
Description: Inhibition of class 1 HDAC in human CAL27 cells assessed as potentiation of cisplatin-induced cytotoxicity by measuring combination index at 0.5 uM in presence of 0.32 uM cisplatin by MTT assay based Chou-Talalay analysis

[25] = target: T1, Class 1 histone deacetylase; remark: listed apart in the source
Description: Inhibition of class 1 HDAC in human Cal27CisR cells assessed as potentiation of cisplatin-induced cytotoxicity by measuring combination index at 0.25 uM in presence of 100 uM cisplatin by MTT assay based Chou-Talalay analysis

A2780 = experiment: Cytotoxicity against human A2780 cells assessed as reduction in cell survival measured after 72 hrs by MTT assay; assay type: functional, cell-based; settings: A2780, 72 h
CAL-27 = experiment: Induction of apoptosis in human CAL27 cells assessed as accumulation at sub-G1 phase at 100 uM measured after 48 hrs by propidium iodide staining based flow cytometry relative to control; assay type: functional
Histone deacetylase 2 = Histone deacetylase 2 (Homo sapiens, UniProt Q92769); experiment: Inhibition of recombinant human full length C-terminal FLAG-tagged HDAC2 expressed in baculovirus infected Sf9 insect cells using Boc-Lys(epsilon-acetyl)-AMC as substrate incubated for 90 mins by fluorescence assay; assay type: cell-based
[26] = target: T1, Class 1 histone deacetylase; experiment: Inhibition of class 1 HDAC in human CAL27 cells assessed as potentiation of cisplatin-induced cytotoxicity by measuring combination index at 5 uM in presence of […] cisplatin by MTT assay based Chou-Talalay analysis; assay type: cell-based; settings: CAL-27
[27] = target: T1, Class 1 histone deacetylase; experiment: (§2) Inhibition of class 1 HDAC in human CAL27 cells assessed as potentiation of cisplatin-induced apoptosis assessed as increase in caspase-3/7 activation at 5 uM preincubated for 48 hrs followed by cisplatin addition and measured after 24 hrs in presence of pan caspase inhibitor QVD by CellEvent caspase 3/7 green detection reagent/Hoechst 33342 staining based imaging analysis; assay type: cell-based; settings: CAL-27
[28] = target: T1, Class 1 histone deacetylase; experiment: as §2, with “Cal27CisR” for “CAL27”; assay type: cell-based

T1 sequence (O15379 whole entry, looked up): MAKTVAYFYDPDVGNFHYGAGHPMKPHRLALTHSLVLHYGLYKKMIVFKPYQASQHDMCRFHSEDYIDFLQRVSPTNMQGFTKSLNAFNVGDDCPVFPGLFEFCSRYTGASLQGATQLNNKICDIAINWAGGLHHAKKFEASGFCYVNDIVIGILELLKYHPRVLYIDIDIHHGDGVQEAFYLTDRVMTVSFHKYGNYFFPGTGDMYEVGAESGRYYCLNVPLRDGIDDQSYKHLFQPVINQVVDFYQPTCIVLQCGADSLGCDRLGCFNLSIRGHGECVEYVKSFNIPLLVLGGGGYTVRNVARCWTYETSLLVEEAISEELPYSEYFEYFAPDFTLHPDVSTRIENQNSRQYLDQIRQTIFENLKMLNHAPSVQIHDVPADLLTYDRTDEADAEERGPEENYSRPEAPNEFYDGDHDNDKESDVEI
T1 sequence (Q13547 whole entry, looked up): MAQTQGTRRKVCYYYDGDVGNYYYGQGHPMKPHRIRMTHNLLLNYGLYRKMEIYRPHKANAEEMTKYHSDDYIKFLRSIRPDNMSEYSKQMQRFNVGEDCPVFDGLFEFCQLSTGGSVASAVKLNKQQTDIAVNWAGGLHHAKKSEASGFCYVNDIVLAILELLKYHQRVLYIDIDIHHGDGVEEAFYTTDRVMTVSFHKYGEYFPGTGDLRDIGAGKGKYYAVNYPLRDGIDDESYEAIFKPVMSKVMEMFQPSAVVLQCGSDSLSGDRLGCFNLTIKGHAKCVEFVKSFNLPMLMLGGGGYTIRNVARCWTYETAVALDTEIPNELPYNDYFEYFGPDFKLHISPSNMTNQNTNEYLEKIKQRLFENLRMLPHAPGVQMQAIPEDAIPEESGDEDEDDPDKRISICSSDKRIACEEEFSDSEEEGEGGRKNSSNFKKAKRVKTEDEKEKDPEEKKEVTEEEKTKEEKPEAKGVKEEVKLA
T1 sequence (Q92769 whole entry, looked up): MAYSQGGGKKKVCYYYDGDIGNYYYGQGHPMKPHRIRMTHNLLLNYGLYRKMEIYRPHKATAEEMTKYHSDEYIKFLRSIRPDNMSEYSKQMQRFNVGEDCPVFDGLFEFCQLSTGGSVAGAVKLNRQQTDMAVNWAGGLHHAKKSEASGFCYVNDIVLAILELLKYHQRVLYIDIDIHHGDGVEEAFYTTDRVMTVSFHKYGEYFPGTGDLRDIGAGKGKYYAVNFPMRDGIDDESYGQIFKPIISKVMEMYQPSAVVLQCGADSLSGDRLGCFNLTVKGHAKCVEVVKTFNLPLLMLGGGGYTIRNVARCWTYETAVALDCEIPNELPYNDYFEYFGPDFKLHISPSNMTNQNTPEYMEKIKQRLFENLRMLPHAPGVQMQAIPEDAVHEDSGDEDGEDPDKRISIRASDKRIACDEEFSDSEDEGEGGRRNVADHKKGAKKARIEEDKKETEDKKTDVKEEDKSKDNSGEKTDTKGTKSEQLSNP
T1 sequence (Q9BY41 whole entry, looked up): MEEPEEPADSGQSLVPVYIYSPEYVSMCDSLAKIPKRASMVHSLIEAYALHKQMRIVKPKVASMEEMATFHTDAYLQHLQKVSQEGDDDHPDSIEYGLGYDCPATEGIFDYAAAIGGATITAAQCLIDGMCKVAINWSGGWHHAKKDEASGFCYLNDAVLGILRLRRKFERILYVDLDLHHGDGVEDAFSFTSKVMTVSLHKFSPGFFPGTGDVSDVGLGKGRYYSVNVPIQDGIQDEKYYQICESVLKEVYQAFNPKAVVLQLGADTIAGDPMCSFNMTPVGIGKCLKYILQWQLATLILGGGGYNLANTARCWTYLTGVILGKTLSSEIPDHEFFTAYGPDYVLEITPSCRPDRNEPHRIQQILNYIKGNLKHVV
Sequence of Histone deacetylase 2 (Q92769 whole entry): as the sequence (Q92769 whole entry, looked up) above
Sequence of Histone deacetylase 3/Nuclear receptor corepressor 2 (HDAC3/NCoR2) (O15379 whole entry, the tested form may be a part): as the sequence (O15379 whole entry, looked up) above
Sequence of Histone deacetylase 3/Nuclear receptor corepressor 2 (HDAC3/NCoR2) (Q9Y618 whole entry, further chain, the tested form may be a part): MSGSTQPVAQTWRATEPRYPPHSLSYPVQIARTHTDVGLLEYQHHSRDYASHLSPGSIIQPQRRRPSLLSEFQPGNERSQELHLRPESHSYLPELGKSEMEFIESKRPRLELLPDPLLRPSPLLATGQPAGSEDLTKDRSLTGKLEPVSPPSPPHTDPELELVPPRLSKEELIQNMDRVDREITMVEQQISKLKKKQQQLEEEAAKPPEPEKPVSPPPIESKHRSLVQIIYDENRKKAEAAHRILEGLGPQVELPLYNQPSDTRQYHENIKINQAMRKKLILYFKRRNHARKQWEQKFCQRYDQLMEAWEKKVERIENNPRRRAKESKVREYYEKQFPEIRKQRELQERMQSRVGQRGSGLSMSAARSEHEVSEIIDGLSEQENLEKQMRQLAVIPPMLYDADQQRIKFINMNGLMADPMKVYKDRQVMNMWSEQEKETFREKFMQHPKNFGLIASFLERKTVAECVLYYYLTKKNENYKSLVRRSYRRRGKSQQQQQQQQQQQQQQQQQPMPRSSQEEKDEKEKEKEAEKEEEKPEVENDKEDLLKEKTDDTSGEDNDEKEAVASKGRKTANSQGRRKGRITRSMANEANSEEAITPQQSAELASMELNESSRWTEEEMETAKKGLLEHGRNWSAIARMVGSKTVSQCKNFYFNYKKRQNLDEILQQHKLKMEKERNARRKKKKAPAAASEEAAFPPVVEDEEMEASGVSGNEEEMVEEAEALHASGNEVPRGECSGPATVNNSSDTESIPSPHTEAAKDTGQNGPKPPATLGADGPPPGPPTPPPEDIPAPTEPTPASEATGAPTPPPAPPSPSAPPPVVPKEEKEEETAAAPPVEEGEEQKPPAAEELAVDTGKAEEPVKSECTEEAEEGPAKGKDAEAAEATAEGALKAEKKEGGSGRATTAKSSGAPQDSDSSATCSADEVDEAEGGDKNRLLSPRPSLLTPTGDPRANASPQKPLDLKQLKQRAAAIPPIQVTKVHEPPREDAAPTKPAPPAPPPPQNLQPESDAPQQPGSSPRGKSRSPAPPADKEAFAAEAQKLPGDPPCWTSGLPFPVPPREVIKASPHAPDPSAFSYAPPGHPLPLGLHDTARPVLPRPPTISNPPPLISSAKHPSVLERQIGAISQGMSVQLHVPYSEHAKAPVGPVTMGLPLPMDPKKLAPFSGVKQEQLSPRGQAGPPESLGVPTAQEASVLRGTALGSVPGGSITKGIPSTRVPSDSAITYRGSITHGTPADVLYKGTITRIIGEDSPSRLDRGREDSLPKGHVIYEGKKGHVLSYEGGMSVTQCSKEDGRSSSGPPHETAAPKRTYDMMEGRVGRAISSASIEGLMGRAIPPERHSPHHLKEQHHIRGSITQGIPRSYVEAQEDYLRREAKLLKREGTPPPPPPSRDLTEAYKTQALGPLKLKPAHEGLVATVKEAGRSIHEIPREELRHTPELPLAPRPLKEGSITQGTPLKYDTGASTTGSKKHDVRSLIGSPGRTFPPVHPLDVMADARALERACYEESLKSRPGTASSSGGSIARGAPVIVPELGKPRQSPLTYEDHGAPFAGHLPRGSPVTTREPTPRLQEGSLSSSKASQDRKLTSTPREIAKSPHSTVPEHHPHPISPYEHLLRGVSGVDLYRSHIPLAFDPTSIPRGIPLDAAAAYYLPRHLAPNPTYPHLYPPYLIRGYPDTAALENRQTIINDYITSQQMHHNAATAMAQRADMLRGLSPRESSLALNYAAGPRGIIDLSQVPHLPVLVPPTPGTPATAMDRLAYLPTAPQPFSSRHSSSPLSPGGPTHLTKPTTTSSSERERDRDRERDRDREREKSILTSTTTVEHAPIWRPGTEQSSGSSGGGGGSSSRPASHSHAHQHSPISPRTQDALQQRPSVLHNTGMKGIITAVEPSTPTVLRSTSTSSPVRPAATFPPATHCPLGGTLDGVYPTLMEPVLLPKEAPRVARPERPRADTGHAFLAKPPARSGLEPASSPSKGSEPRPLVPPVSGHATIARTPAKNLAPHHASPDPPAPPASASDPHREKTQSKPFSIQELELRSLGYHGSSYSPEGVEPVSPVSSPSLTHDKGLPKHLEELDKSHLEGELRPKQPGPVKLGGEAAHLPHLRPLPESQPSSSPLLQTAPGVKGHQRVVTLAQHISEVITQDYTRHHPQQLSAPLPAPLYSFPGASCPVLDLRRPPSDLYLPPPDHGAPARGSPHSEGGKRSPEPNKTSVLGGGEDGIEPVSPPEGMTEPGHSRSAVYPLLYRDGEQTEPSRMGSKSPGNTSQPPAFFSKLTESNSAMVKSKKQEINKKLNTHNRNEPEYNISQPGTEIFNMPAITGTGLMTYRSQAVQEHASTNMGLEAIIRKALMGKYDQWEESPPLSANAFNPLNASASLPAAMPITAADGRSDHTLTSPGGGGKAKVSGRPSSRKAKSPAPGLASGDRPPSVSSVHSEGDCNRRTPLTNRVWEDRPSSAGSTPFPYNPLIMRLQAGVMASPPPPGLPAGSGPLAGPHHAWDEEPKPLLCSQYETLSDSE

| Compound | CI [1] | CI [2] | CI [3] | CI [4] | CI [5] | CI [6] | CI [7] | CI [8] | CI [9] | IC50 [10] | inhibition [11] | CI [12] | CI [13] | CI [14] | CI [15] | CI [16] | CI [17] | CI [18] | CI [19] | CI [20] | other results |
| --- | --- | --- | --- | --- | --- | --- | --- | --- | --- | --- | --- | --- | --- | --- | --- | --- | --- | --- | --- | --- | --- |
| Cc1cc(C)cc(C(=O)N(CC(=O)NCc2ccccc2)Cc2ccc(C(=O)Nc3cc(-c4ccccc4)ccc3N)cc2)c1 | < 0.2 | 0.16 | 0.52 | 0.19 | 0.08 | 0.23 | 0.18 | < 0.2 | 0.81 | > 10 µM | < 15% | 0.14 | 0.31 | 0.5 | < 0.2 | 0.89 | 0.08 | 0.5 | 0.77 | 0.34 | CI [21]: 0.21; CI [22]: 0.18; CI [23]: 0.46; CI [24]: 0.7 |
| CN(C)c1ccc(C(=O)N(CC(=O)NCc2ccccc2)Cc2ccc(C(=O)Nc3ccccc3N)cc2)cc1 | 0.25 |  |  |  |  |  |  |  |  | 0.586 µM |  |  |  |  | 0.03 |  |  | 0.4 | 0.33 |  | CI [25]: 0.03; IC50 (A2780): 2.4 µM; Activity (CAL-27): 31%; IC50 (Histone deacetylase 2): 0.283 µM; CI [21]: 0.07; CI [22]: 0.07; CI [24]: 0.32 |
| Cc1cc(C)cc(C(=O)N(CCCCCC(=O)Nc2cc(-c3ccccc3)ccc2N)CC(=O)NCc2ccccc2)c1 |  | 0.53 | < 0.2 | 0.09 | 0.12 | < 0.2 | 0.74 | < 0.2 | < 0.2 |  | 20% | 0.25 | < 0.2 | < 0.2 |  | < 0.2 | 0.06 |  |  | < 0.2 | CI [26]: 0.1; IC50 (A2780): 17.1 µM; IC50 (Histone deacetylase 2): 1.81 µM; inhibition [27]: inactive; CI [23]: < 0.2; inhibition [28]: inactive |
